Experimental data as given in patent publication US7265129B2, “Anti-infective biaryl compounds” (priority 2002, dated 2007).

Columns and labels:
C. albicans ATCC 38247 = assay: MIC, antifungal assay, C. albicans; format: cell-based, Candida albicans
Description: (§1) It vitro biological activity data were collected for a variety of microorganisms, including Bacillus cereus (ATCC 11778), Staphylococcus aureus (ATCC 33591; ATCC 27660, a methicillin resistant strain (MRSA); ATCC 13709, a methicillin sensitive strain (MSSA)), Enterococcus faecalis (ATCC 29212), and Streptococcus pneumoniae (ATCC 49619). Additionally, antifungal activity data were collected for Candida albicans (ATCC 38247).
(§2) Compounds according to this invention were screened for their in vitro activities against selected species of bacteria and fungi. The minimal inhibition concentration (MIC) of these compounds was determined using the National Committee for Clinical Laboratory Standards (NCCLS) broth microdilution assay in microtiter plates, as set forth in: (1) the guidelines of the National Committee for Clinical Laboratory Standards (NCCLS) Document M7-A4 (NCCLS, 1997); (2) the guidelines of the National Committee for Clinical Laboratory Standards (NCCLS) Document M11-A4 (NCCLS, 1997); and (3) the guidelines and reference method of the National Committee for Clinical Laboratory Standards (NCCLS) Document M27-T (NCCLS, 1995). For antifungal assays, the method recommended in Murray, P R., 1995 Manual of Clinical Microbiology (ASM Press, Washington, D.C.), was employed.

S. aureus ATCC 27660 = assay: MIC, NCCLS broth microdilution, S. aureus MRSA; format: cell-based, Staphylococcus aureus; details: S. aureus ATCC 27660, methicillin resistant strain (MRSA)
Description: as §1, §2

S. pneumoniae ATCC 49619 = assay: MIC, NCCLS broth microdilution, S. pneumoniae; format: cell-based, Streptococcus pneumoniae
Description: as §1, §2

S. aureus ATCC 33591 = assay: MIC, NCCLS broth microdilution, S. aureus ATCC 33591; format: cell-based, Staphylococcus aureus
Description: as §1, §2

B. cereus ATCC 11778 = assay: MIC, NCCLS broth microdilution, B. cereus; format: cell-based, Bacillus cereus
Description: as §1, §2

E. faecalis ATCC 29212 = assay: MIC, NCCLS broth microdilution, E. faecalis; format: cell-based, Enterococcus faecalis
Description: as §1, §2

S. aureus ATCC 13709 = assay: MIC, NCCLS broth microdilution, S. aureus MSSA; format: cell-based, Staphylococcus aureus; details: S. aureus ATCC 13709, methicillin sensitive strain (MSSA)
Description: as §1, §2

Row | Structure (SMILES) | Minimum Inhibitory Concentration (MIC), organism B (C. albicans ATCC 38247) | Minimum Inhibitory Concentration (MIC), organism E (S. aureus ATCC 27660) | Minimum Inhibitory Concentration (MIC), organism G (S. pneumoniae ATCC 49619) | Minimum Inhibitory Concentration (MIC), organism F (S. aureus ATCC 33591) | Minimum Inhibitory Concentration (MIC), organism A (B. cereus ATCC 11778) | Minimum Inhibitory Concentration (MIC), organism C (E. faecalis ATCC 29212) | Minimum Inhibitory Concentration (MIC), organism D (S. aureus ATCC 13709)
1 | Cn1cc(NC(=O)c2cc(NC(=O)c3sc4ccccc4c3Cl)cn2CCCN2CCCCC2)cc1-c1nc2ccccc2[nH]1 [Compound A-23] | + (12 ≦ MIC ≦ 32 μg/mL) | +++ (MIC ≦ 4 μg/mL) | +++ (MIC ≦ 4 μg/mL) | +++ (MIC ≦ 4 μg/mL) | +++ (MIC ≦ 4 μg/mL) | +++ (MIC ≦ 4 μg/mL) | +++ (MIC ≦ 4 μg/mL)
2 | Cn1cc(NC(=O)c2cc(NC(=O)c3sc4ccccc4c3Cl)cn2CCCN2CCC(F)(F)CC2)cc1-c1nc2ccccc2[nH]1 [Compound A-25] | >32 µg/mL | + (12 ≦ MIC ≦ 32 μg/mL) | ++ (4 < MIC < 12 μg/mL) | + (12 ≦ MIC ≦ 32 μg/mL) | >32 µg/mL | + (12 ≦ MIC ≦ 32 μg/mL) | + (12 ≦ MIC ≦ 32 μg/mL)
3 | Cn1cc(NC(=O)c2cc(NC(=O)c3sc4ccccc4c3Cl)cn2CCCN2CCOCC2)cc1-c1nc2ccccc2[nH]1 [Compound A-26] | >32 µg/mL | +++ (MIC ≦ 4 μg/mL) | +++ (MIC ≦ 4 μg/mL) | +++ (MIC ≦ 4 μg/mL) | +++ (MIC ≦ 4 μg/mL) | +++ (MIC ≦ 4 μg/mL) | +++ (MIC ≦ 4 μg/mL)
4 | Cn1cc(NC(=O)c2cc(NC(=O)c3sc4ccccc4c3Cl)cn2CCC[n+]2ccccc2)cc1-c1nc2ccccc2[nH]1 [Compound A-27] | + (12 ≦ MIC ≦ 32 μg/mL) | ++ (4 < MIC < 12 μg/mL) | + (12 ≦ MIC ≦ 32 μg/mL) | ++ (4 < MIC < 12 μg/mL) | + (12 ≦ MIC ≦ 32 μg/mL) | + (12 ≦ MIC ≦ 32 μg/mL) | ++ (4 < MIC < 12 μg/mL)
5 | CN(C)CCCn1cc(NC(=O)c2sc3ccccc3c2Cl)cc1C(=O)Nc1cc(-c2nc3ncccc3[nH]2)n(C)c1 [Compound A-28] | >32 µg/mL | +++ (MIC ≦ 4 μg/mL) | +++ (MIC ≦ 4 μg/mL) | +++ (MIC ≦ 4 μg/mL) | +++ (MIC ≦ 4 μg/mL) | +++ (MIC ≦ 4 μg/mL) | +++ (MIC ≦ 4 μg/mL)
6 | CN(C)CCCn1cc(NC(=O)c2sc3ccccc3c2Cl)cc1C(=O)Nc1cc(-c2nc3ccncc3[nH]2)n(C)c1 [Compound A-29] | ++ (4 < MIC < 12 μg/mL) | +++ (MIC ≦ 4 μg/mL) | +++ (MIC ≦ 4 μg/mL) | +++ (MIC ≦ 4 μg/mL) | +++ (MIC ≦ 4 μg/mL) | +++ (MIC ≦ 4 μg/mL) | +++ (MIC ≦ 4 μg/mL)
7 | Cn1cc(NC(=O)c2cc(NC(=O)c3ccc(Cl)cc3F)cn2CCCN2CCCCC2)cc1-c1nc2ccccc2[nH]1 [Compound A-32] | + (12 ≦ MIC ≦ 32 μg/mL) | +++ (MIC ≦ 4 μg/mL) | +++ (MIC ≦ 4 μg/mL) | +++ (MIC ≦ 4 μg/mL) | +++ (MIC ≦ 4 μg/mL) | +++ (MIC ≦ 4 μg/mL) | +++ (MIC ≦ 4 μg/mL)
8 | Cn1cc(NC(=O)c2cc(NC(=O)c3ccc(Cl)cc3F)cn2CCCN2CCSCC2)cc1-c1nc2ccccc2[nH]1 [Compound A-33] | >32 µg/mL | +++ (MIC ≦ 4 μg/mL) | +++ (MIC ≦ 4 μg/mL) | +++ (MIC ≦ 4 μg/mL) | +++ (MIC ≦ 4 μg/mL) | +++ (MIC ≦ 4 μg/mL) | +++ (MIC ≦ 4 μg/mL)
